Values of other authors as cited in patent US20220287355A1, “ORAL PRODUCTS WITH SELF-EMULSIFYING SYSTEM” (NICOVENTURES TRADING LIMITED, priority 2021, published 2022).

Tests used:
[1] = not given; remark: listed apart in the source

Q: What does the source list for `C=C(C)[C@@H]1CCC(C)=C[C@H]1c1c(O)cc(CCCCC)cc1O` [CBD, cannabidiol]?
A: solubility in an aqueous environment (e.g., saliva): insoluble; logP value [1]: about 6.5
